According to US20200022370A1, “MICROBIOCIDAL OXADIAZOLE DERIVATIVES” (SYNGENTA PARTICIPATIONS AG, priority 2016, published 2020):

Key:
[1] = tested on: Puccinia recondita f. Sp. Tritici; experiment: Puccinia recondita f. sp. tritici / wheat / leaf disc curative (brown rust); format: in vivo; details: foliar, 200 ppm in the applied formulation, wheat leaf segments cv. Kanzler, compound applied 1 day after inoculation, vs untreated, 6 to 8 days after application, read-out: disease control
Method: (§1) Leaf disks or leaf segments of various plant species are cut from plants grown in a greenhouse. The cut leaf disks or segments are placed in multiwell plates (24-well format) onto water agar. The leaf disks are sprayed with a test solution before (preventative) or after (curative) inoculation. Compounds to be tested are prepared as DMSO solutions (max. 10 mg/ml) which are diluted to the appropriate concentration with 0.025% Tween20 just before spraying. The inoculated leaf disks or segments are incubated under defined conditions (temperature, relative humidity, light, etc.) according to the respective test system. A single evaluation of disease level is carried out 3 to 14 days after inoculation, depending on the pathosystem. Percent disease control relative to the untreated check leaf disks or segments is then calculated.
Example 2: Fungicidal Activity Against Puccinia recondita f. sp. tritici/Wheat/Leaf Disc Curative (Brown Rust)
Wheat leaf segments cv. Kanzler are placed on agar in multiwell plates (24-well format). The leaf segments are then inoculated with a spore suspension of the fungus. Plates were stored in darkness at 19° C. and 75% relative humidity. The Formulated test compound diluted in water was applied 1 day after inoculation. The leaf segments were incubated at 19° C. and 75% relative humidity under a light regime of 12 hours light/12 hours darkness in a climate cabinet and the activity of a compound was assessed as percent disease control compared to untreated when an appropriate level of disease damage appears in untreated check leaf segments (6 to 8 days after application).
(§2) The following compounds at 200 ppm in the applied Formulation give at least 80% disease control in this test when compared to untreated control leaf disks under the same conditions, which show extensive disease development.

[2] = tested on: Phakopsora pachyrhizi; experiment: Phakopsora pachyrhizi / soybean / leaf disc preventative (Asian soybean rust); format: in vivo; details: foliar, 200 ppm in the applied formulation, soybean leaf disks, inoculated one day after application, vs untreated, 12 to 14 days after application, read-out: disease control
Method: as §1
Example 3: Fungicidal Activity Against Phakopsora pachyrhizi/Soybean/Leaf Disc Preventative (Asian Soybean Rust)
Soybean leaf disks are placed on water agar in multiwell plates (24-well format) and sprayed with the Formulated test compound diluted in water. One day after application leaf discs are inoculated by spraying a spore suspension on the lower leaf surface. After an incubation period in a climate cabinet of 24-36 hours in darkness at 20° C. and 75% rh leaf disc are kept at 20° C. with 12 h light/day and 75% rh. The activity of a compound is assessed as percent disease control compared to untreated when an appropriate level of disease damage appears in untreated check leaf disks (12 to 14 days after application).
as §2

[3] = tested on: Glomerella lacenarium (Colletotrichum lacenarium); experiment: Glomerella lacenarium (Colletotrichum lacenarium) liquid culture / cucumber / preventative (anthracnose); format: cell-based; details: 20 ppm, liquid culture in PDB, 24° C., inhibition of growth measured photometrically 3 to 4 days after application, vs untreated, read-out: disease control
In short: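 Cryopreserved conidia in potato dextrose broth were added to test compound in a 96-well microtiter plate and incubated at 24 °C. Growth inhibition read photometrically 3–4 days after application, as percent activity versus untreated check.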

[4] = tested on: Puccinia recondita f. Sp. Tritici; experiment: Puccinia recondita f. sp. tritici / wheat / leaf disc preventative (brown rust); format: in vivo; details: foliar, 200 ppm in the applied formulation, wheat leaf segments cv. Kanzler, inoculated 1 day after application, vs untreated, 7 to 9 days after application, read-out: disease control
In short: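 Segments of cv. Kanzler wheat on agar received a spray of compound formulation diluted in water and were inoculated with spores one day afterwards. Kept at 19° C and 75% rh under 12 h/12 h light; disease control relative to untreated checks rated at 7–9 days post-application.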

O=C(CSc1ccccc1)Nc1ccc(-c2noc(C(F)(F)F)n2)nc1 [Compound 1.55, 2-phenylsulfanyl-N-[6-[5-(trifluoromethyl)-1,2,4-oxadiazol-3-yl]-3-pyridyl]acetamide]
≥ 80%: pest or weed control at 200 ppm [1] | pest or weed control at 200 ppm [2] | inhibition of growth at 20 ppm [3] | pest or weed control at 200 ppm [4]

COC(=O)C(C)(C)CC(=O)Nc1ccc(-c2noc(C(F)(F)F)n2)cc1 [Compound 1.73, methyl 2,2-dimethyl-4-oxo-4-[4-[5-(trifluoromethyl)-1,2,4-oxadiazol-3-yl]anilino]butanoate]
≥ 80%: pest or weed control at 200 ppm [1] | pest or weed control at 200 ppm [2] | inhibition of growth at 20 ppm [3] | pest or weed control at 200 ppm [4]

CC(C)C(=O)Nc1ccc(-c2noc(C(F)(F)F)n2)cc1 [Compound 1.74, 2-methyl-N-[4-[5-(trifluoromethyl)-1,2,4-oxadiazol-3-yl]phenyl] propanamide]
≥ 80%: pest or weed control at 200 ppm [1] | pest or weed control at 200 ppm [2] | inhibition of growth at 20 ppm [3] | pest or weed control at 200 ppm [4]

CCC(C)C(=O)Nc1ccc(-c2noc(C(F)(F)F)n2)cc1 (stereo not shown) [Compound 1.99, 2-methyl-N-[4-[5-(trifluoromethyl)-1,2,4-oxadiazol-3-yl]phenyl]butanamide]
≥ 80%: pest or weed control at 200 ppm [1] | pest or weed control at 200 ppm [2] | inhibition of growth at 20 ppm [3] | pest or weed control at 200 ppm [4]

CC1(C(=O)Nc2ccc(-c3noc(C(F)(F)F)n3)cc2)COC1 [Compound 1.102, 3-methyl-N-[4-[5-(trifluoromethyl)-1,2,4-oxadiazol-3-yl]phenyl]oxetane-3-carboxamide]
≥ 80%: pest or weed control at 200 ppm [1] | pest or weed control at 200 ppm [2] | inhibition of growth at 20 ppm [3] | pest or weed control at 200 ppm [4]

O=C(Nc1ccc(-c2noc(C(F)(F)F)n2)cc1)C1CC1F (stereo not shown) [Compound 1.111, 2-fluoro-N-[4-[5-(trifluoromethyl)-1,2,4-oxadiazol-3-yl]phenyl]cyclo-propanecarboxamide]
≥ 80%: pest or weed control at 200 ppm [1] | pest or weed control at 200 ppm [2] | inhibition of growth at 20 ppm [3] | pest or weed control at 200 ppm [4]

COC(C)C(=O)Nc1ccc(-c2noc(C(F)(F)F)n2)cc1 (stereo not shown) [Compound 1.112, 2-methoxy-N-[4-[5-(trifluoromethyl)-1,2,4-oxadiazol-3-yl]phenyl] propanamide]
≥ 80%: pest or weed control at 200 ppm [1] | pest or weed control at 200 ppm [2] | inhibition of growth at 20 ppm [3] | pest or weed control at 200 ppm [4]

CN(C(=O)C1CCOC1)c1ccc(-c2noc(C(F)(F)F)n2)cc1 (stereo not shown) [Compound 1.135, N-methyl-N-[4-[5-(trifluoromethyl)-1,2,4-oxadiazol-3-yl]phenyl] tetrahydrofuran-3-carboxamide]
≥ 80%: pest or weed control at 200 ppm [1] | pest or weed control at 200 ppm [2] | inhibition of growth at 20 ppm [3]

COCCC(=O)N(C)c1ccc(-c2noc(C(F)(F)F)n2)cc1 [Compound 1.136, 3-methoxy-N-methyl-N-[4-[5-(trifluoromethyl)-1,2,4-oxadiazol-3-yl]phenyl] propanamide]
≥ 80%: pest or weed control at 200 ppm [1] | pest or weed control at 200 ppm [2] | inhibition of growth at 20 ppm [3]

COCCCC(=O)N(C)c1ccc(-c2noc(C(F)(F)F)n2)cc1 [Compound 1.140, 4-methoxy-N-methyl-N-[4-[5-(trifluoromethyl)-1,2,4-oxadiazol-3-yl]phenyl]butanamide]
≥ 80%: pest or weed control at 200 ppm [1] | pest or weed control at 200 ppm [2] | inhibition of growth at 20 ppm [3]

CON(C(=O)C1CC1)c1ccc(-c2noc(C(F)(F)F)n2)cc1 [Compound 2.27, N-methoxy-N-[4-[5-(trifluoromethyl)-1,2,4-oxadiazol-3-yl]phenyl] cyclopropane-carboxamide]
≥ 80%: pest or weed control at 200 ppm [1] | pest or weed control at 200 ppm [2] | inhibition of growth at 20 ppm [3]
